Target: T1, SGLT2 (Homo sapiens, UniProt P31639)
T1 construct: expressed in transfected cells
T1 sequence (P31639 1-672): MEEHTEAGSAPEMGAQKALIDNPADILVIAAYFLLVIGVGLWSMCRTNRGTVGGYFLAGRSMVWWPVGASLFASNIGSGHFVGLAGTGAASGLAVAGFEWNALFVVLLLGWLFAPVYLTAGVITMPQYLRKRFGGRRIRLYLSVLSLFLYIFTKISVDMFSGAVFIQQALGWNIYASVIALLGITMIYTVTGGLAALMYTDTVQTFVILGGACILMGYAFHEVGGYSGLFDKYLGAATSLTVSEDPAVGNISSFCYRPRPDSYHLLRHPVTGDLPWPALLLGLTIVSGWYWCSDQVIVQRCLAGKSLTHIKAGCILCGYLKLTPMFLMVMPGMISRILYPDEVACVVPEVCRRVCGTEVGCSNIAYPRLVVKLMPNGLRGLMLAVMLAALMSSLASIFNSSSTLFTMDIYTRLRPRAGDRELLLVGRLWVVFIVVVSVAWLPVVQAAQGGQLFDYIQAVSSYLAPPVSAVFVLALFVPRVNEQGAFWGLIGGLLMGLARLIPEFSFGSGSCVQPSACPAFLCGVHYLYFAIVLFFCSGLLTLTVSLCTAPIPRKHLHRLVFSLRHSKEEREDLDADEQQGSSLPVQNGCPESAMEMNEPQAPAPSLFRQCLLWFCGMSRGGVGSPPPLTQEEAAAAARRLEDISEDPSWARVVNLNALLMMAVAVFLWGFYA
Experiment: Applicant's preliminary study of SGLT2 inhibition, intracellular retention and activity recovery
Format: cell-based

OC[C@H]1O[C@@H](c2cc(Cc3ccc(C4CC4)cc3)c(Cl)c3c2CCO3)[C@H](O)[C@@H](O)[C@@H]1O [Enavogliflozin, (2S,3R,4R,5S,6R)-2-(7-chloro-6 (4-cyclopropylbenzyl)-2,3-dihydrobenzofuran-4-yl)-6-(hydroxymethyl)tetrahydro-2H-pyran-3,4,5-triol]
Amount of drug remaining in the cells (after culturing for 24 hours, compared to dapagliflozin and ipragliflozin): significantly higher | Inhibition mechanism of SGLT2 (Dixon plot and Replot) (preliminary study): reversible competitive inhibition mechanism | Change in inhibition after pretreatment (pretreatment for up to two hours, preliminary study): no change in inhibition
